Assay results from patent publication US7265091B2, “Methods and compositions for treating male erectile dysfunction” (The Regents of the University of California, priority 2000, dated 2007).
Several values for one entry are separate records, joined by “and”; a condition that tells them apart may be missing. Equal entries are not always repeated. Where two headings read alike, the source gives them in different places.

Columns and labels:
[1] = test system: venogenic erectile dysfunction in castrated rats; test: Pharmacologic cavernosometry, prevention trial in castrated rats (Experiment 2); format: in vivo, rat; settings: castrated rats treated at castration, cavernosometry 9 weeks after castration
Text: For the prevention trial of VEGF in rats with venogenic erectile ED, adult males were castrated and immediately treated with hormone, intracavernosal VEGF. […] Control animals received an silastic implant containing saline (n=3), an intracavernous injection of normal saline (n=3) or an […] transfection vector expressing lacZ reporter gene without the VEGF gene (AAV-LacZ, n=11).
(§1) A 1.5 cm oblique incision was made in the lower abdominal skin extending from the midline just above the penile hilum to below the level of the glans about 1 cm lateral to the midline. The skin was sharply dissected from the anterior surface of the penis and then the penis was retracted anteriorly using a towel clamp placed around it atraumatically with the foreskin left intact. Using blunt dissection the penile base and crura were exposed. The ischiocavernosus muscles were sharply dissected off the anterior surface of the crus until the white of the tunica albuginea of the corpora cavernosa was identified. The crus was then gently cannulated using a 23 gage butterfly needle, and saline flush with a visual erectile response was used to confirm that the needle tip was truly intracavernosal. The intracavernosal injections were then administered with either VEGF protein (Calbiochem, La Jolla, Calif. #676472) at the dosage 4 ug/injection (in 0.1 cc PBS with 0.1% BSA), AAV-VEGF (10^10 viral particles in 0.1 cc NS), AAV-LacZ (10^10 viral particles in 0.1 cc NS), or 0.1 ml NS alone. The AAV-VEGF and AAV-LacZ constructs were a generous gift from Dr. Yuet W. Kan (Howard Hughes Medical Research Institute, San Francisco, Calif.).^19,20 Following injection, the needle was left in place for 5 minutes and then removed to allow the medication to diffuse throughout the cavernosal space. Immediately thereafter, pinpoint electrocautery was applied to the needle hole for hemostasis and then the wound was closed and the animal recovered as above.
Following castration, testosterone- or saline-filled silastic implants were placed in the subcutaneous tissue of the anterior abdominal wall, as previously described.^17 Implants were prepared using sterile silastic tubing (Dow Coming, Midland, Mich. #602-265, inner diameter 0.062″) that was filled with testosterone propionate powder (Sigma Chemical, St. Louis, Mo.) with the aid of wall suction.
To perform pharmacologic cavemosometry, both the right and left crura were separately cannulated using 23 gauge butterfly needles as described above. One cannula was flushed with sterile heparinized saline (100 U heparin/ml NS) and attached to a pressure detector for continuous intracorporal pressure (ICP) monitoring as previously described.^11 The contralateral cannula was attached to an infusion pump (Harvard Pump, Southwick, Mass. #55-2222), filled with sterile dilute heparinized saline (20 U heparin/ml NS). The baseline ICP was recorded (flaccid ICP) and then a dose of papavarine (1 mg in 0.1 cc NS) was administered through the infusion cannula. Five minutes was allowed for the papavarine to diffuse throughout the corpora and then the infusion cannula was flushed with heparinized saline and the pressure monitor cannula vented to normalize ICP after flushing. After 5 minutes more, the ICP was again recorded (ICP after papavarine) and the infusion started. An infusion rate of 0.05 ml/min was started and increased (by 0.05 ml/min every 10 seconds) until the ICP started to rise. Subsequent increases in inflow rate were made only after the ICP reached a plateau pressure. By slowly adjusting the inflow rate, an intracorporal pressure of 100 cm H2O (erectile pressure) was reached and the infusion rate required to maintain this pressure recorded (the maintenance rate). After this pressure was steady for 20 seconds, the infusion was terminated and the change in ICP over the subsequent 60 seconds was recorded (the drop rate).

[2] = test system: blood vessels and nerve fibers in the penis; test: Penile tissue histology, nNOS staining and electron microscopy (Example 9); format: in vivo, rat; settings: 3 months after bilateral cavernous nerve freezing
Protocol: Three months old Sprague-Dawley rats (N=30) were used: 6 underwent a sham operation; 24 underwent bilateral cavernous nerve freezing and then randomly divided into four groups of 6 each. The four groups of rats received intracavernous injection of one of the following: 1) phosphate buffered saline (PBS), 2) VEGF protein (4 μg), 3) adeno-associated virus (AAV)-BDNF, and 4). VEGF+AAV-BDNF. Erectile function was assessed by cavernous nerve electrostimulation 3 months later and samples of penile tissue were obtained for electron microscopy and immunohistochemical studies.

[3] = test system: Rat Model of Traumatic Arteriogenic Erectile Dysfunction
Text: Bipolar platinum-wire electrodes were used to stimulate the cavernous nerve. The exposed end of the electrodes were hooked around the nerve to be stimulated, with the positive electrode being positioned proximally and the negative electrode two to three mm distally. Stimulus parameters were 1.5 volts, frequency of 20 pulses per second, pulse width of 0.2 msec, and the duration of 50 seconds. Intracavernous pressure was monitored and recorded by inserting a number 23 scalp vein needle to one of the crura and connected to a pressure monitor.

[4] = test system: dorsal nerve, intracavernosal smooth muscle and endothelium; settings: ligated rats, 4 μg of VEGF
Protocol: The penis was dissected, thinly sliced (˜1 mm thick) and placed in Karnovsky's fixative (1% para-formaldehyde/3% glutaraldehyde/0.1 M sodium cacodylate buffer, pH 7.4) at room temperature for 30 minutes and then stored at 4° C. The fixed tissue was then rinsed in buffer, post-fixed in 2% aqueous OsO4, and stained en bloc with uranyl acetate before being dehydrated in ethanol, cleared in propyline oxide, and embedded in eponate 12 (Ted Pella Co., Redding, Calif.). Thick sections were cut and stained with toludine blue, examined under light microscope to select the area to be thin-sectioned. Thin sections were cut by Leica ultracut E microtome (Bannockburn, Ill.), stained with uranyl acetate and Reynold's Lead to enhance contrast and examined under Philips Tecnai 10 electron microscope (Eidhoven, Netherlands).

[5] = test system: nNOS-positive nerve fibers in dorsal and intracavernous nerves; settings: 2 & 4 μg VEGF, week 6; not statistically significant
Penile dorsal arteries = settings: serum-free medium, 3 days
Protocol: Penile dorsal arteries were isolated from rats and cut into 1-mm segments under a 10× microscope. Each segment was attached to a Matrigel-coated coverslip, which was then put in a 60-mm culture dish. Serum-free medium with or without VEGF was added and the arterial culture was incubated for 3 days.

[6] = test system: Rodent Model of Neurogenic Erectile Dysfunction; settings: VEGF 4 ug intracavernous, three months after bilateral cavernous nerve freezing
Protocol: Seventeen 3 months old Sprague Dowry rats underwent bilateral freezing of the cavernous nerves with a thermocouple immersed in liquid nitrogen. Through an abdominal incision both cavernous nerves were isolated lateral to the prostate and frozen with thermocouple for one minute twice (temperature cycle −130° C. to −3° C.). Minutes later, intracavernous injection of saline (n=7) or VEGF, 4 ug, (n=9) was given. Three months later, all rats underwent re-exploration and electrostimulation of the cavernous nerves to assess erectile function. Eight additional rats underwent exploration only (sham group)

[7] = test system: established venogenic erectile dysfunction in castrated rats; settings: castrated rats with venous leak, 1 month following VEGF treatment
Protocol: These animals (n=8) were treated with intracavernous VEGF protein and then after one month cavernosometry repeated to measure the effect of VEGF treatment.
as §1
To perform pharmacologic cavemosometry, both the right and left crura were separately cannulated using 23 gauge butterfly needles as described above. […] The baseline ICP was recorded (flaccid ICP) and then a dose of papavarine (1 mg in 0.1 cc NS) was administered through the infusion cannula. […] After 5 minutes more, the ICP was again recorded (ICP after papavarine) and the infusion started. […] By slowly adjusting the inflow rate, an intracorporal pressure of 100 cm H2O (erectile pressure) was reached and the infusion rate required to maintain this pressure recorded (the maintenance rate). After this pressure was steady for 20 seconds, the infusion was terminated and the change in ICP over the subsequent 60 seconds was recorded (the drop rate).

VSMC (aorta SMC) = settings: VSMC from 16-weeks-old rats
Protocol: Each primary culture of CSMC was prepared from the corpora cavernosa of 2-3 rats by the following procedure. The penis was cleared of the urethra, blood vessels, fat and connective tissue. The remaining smooth muscle tissue was washed 3 times in sterile PBS (phosphate-buffered saline) and cut into 2-3 mm^3 segments. The segments were placed evenly onto a 100-mm cell culture dish (Falcon-Becton Dickinson Labware, Franklin Lakes, N.J.) inside a cell culture hood. Approximately 10 min later, 10 ml of Dulbecco's Modified Eagle Medium (DMEM) containing penicillin (100 units/ml), streptomycin (100 μg/ml), and 10% FBS was carefully pipetted into the dish. The dish was then kept undisturbed in a humidified 37° C. incubator with 5% CO2. Five days later, tissue segments that have detached from the dish were removed, and the medium was replaced with fresh medium. Another 5 days later, all tissue segments were removed and the medium was again replaced with fresh medium. When small islands of cells were noticeable, they were trypsinized and transferred to a fresh culture dish. […]
Cell proliferation assays were performed with the CellTiter-96 kit from Promega Inc. (Madison, Wis.). […] After 4 hr of further incubation at 37° C. in the humidified, 5% CO2 incubator, color development, which reflects cell numbers, was recorded with a plate reader (Molecular Devices Corp., Sunnyvale, Calif.) at 490-nm absorbance. […]

Which results are given for VEGF?
Drop Rate in 1 min. [1]: 9.0(+/−20) cm H2O; Flaccid ICP [1]: 27.8 cm H2O; ICP After Papavarine [1]: 85.0(+/−28) cm H2O; Maintenance Rate [1]: 0.04(+/−0.09) ml/min; nNOS positive nerve fibers in the dorsal nerves compared to PBS group [2]: increased number; Peak sustained intracavernous pressure during electrostimulation of the cavernous nerves ([3]; 2 μg VEGF intracavernous, Week 1): 23.50 ± 2.38 cm H20; Peak sustained intracavernous pressure during electrostimulation of the cavernous nerves ([3]; 2 μg VEGF intracavernous, Week 2): 43.00 ± 8.37 cm H20; Peak sustained intracavernous pressure during electrostimulation of the cavernous nerves ([3]; 2 μg VEGF intracavernous, Week 6): 69.00 ± 8.83 cm H20; Peak sustained intracavernous pressure during electrostimulation of the cavernous nerves ([3]; 4 μg VEGF intracavernous, Week 1): 71.17 ± 16.89 cm H20; Peak sustained intracavernous pressure during electrostimulation of the cavernous nerves ([3]; 4 μg VEGF intracavernous, Week 2): 86.25 ± 8.18 cm H20; Peak sustained intracavernous pressure during electrostimulation of the cavernous nerves ([3]; 4 μg VEGF intracavernous, Week 6): 96.67 ± 13.50 cm H20; improvement in intracavernous pressure compared with the PBS-treated group ([3]; 2-μg and 4-μg groups, week 6): statistically significant improvement; recovery of erectile function ([3]; 4-μg group, weeks 1 and 2): moderate recovery; appearance of endothelium of sinusoids and capillaries ([4]; 2 and 6-week groups): endothelial cell hypertrophy and hyperplasia; appearance of intracavernosal smooth muscle cells ([4]; 2 and 6-week groups): most of the smooth muscle cells appeared normal; mean diameter of the myelinated axons, dorsal nerve ([4]; week 6): 6.19±2.38 μm; mean diameter of the nonmyelinated axons, dorsal nerve ([4]; week 6): 0.82±0.45 μm; recovery of nNOS-positive nerve fibers in dorsal and intracavernous nerves [5]: moderate recovery; length of budding new blood vessels vs untreated culture (Penile dorsal arteries): significantly longer; maximal intracavernous pressure [6]: 72.78±10.87 cm H2O; Drop Rate in 1 min. [7]: 17.4 cm H2O and 17.4(+/−24) cm H2O; Flaccid ICP [7]: 25.3 cm H2O; ICP After Papavarine [7]: 84 cm H2O and 83.9 cm H2O; Maintenance Rate [7]: 0.08 ml/min and 0.08(+/−0.15) ml/min; effect on growth of VSMC (VSMC (aorta SMC)): did not stimulate growth
